Test results as given in patent EP4781984A1 (Beyang Therapeutics Co., Ltd., priority 2023, dated 2025).
In brackets after ≈: the same amount, converted by molar mass.

Legend:
[1] = Thermodynamic solubility test; type: physicochemical; details: buffer solution, aqueous buffer, thermodynamic from solid; thermodynamic solubility, room temperature, 8 hours shaking; buffers pH 2.0, 6.5, 7.4 used, pH of the tabulated value not given
Summary of the method: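 Samples sonicated 10 min, shaken 8 h at room temperature, re-sonicated and centrifuged at 13000 rpm for 15 min. Supernatant recentrifuged and analysed by LC-MS, with concentrations quantified against a 3–5 point calibration curve.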

[2] = Effect of gellan gum on formulation viscosity and viscosity change after adding simulated tear fluid (Example 10); type: physicochemical; details: compound 5 mg/mL, Gellan Gum 0.15% w/v; for Viscosity after Adding STF: simulated tear fluid added, volume ratio 3.6:1
Method: Example 10: Effect of Gellan Gum on Formulation Viscosity and Viscosity Change after Adding Simulated Tear Fluid
This example investigates the effect of gellan gum on formulation viscosity and simulates the scenario of eye drop instillation by adding simulated tear fluid to the formulation at a volume ratio of 3.6:1. Table 23 Effect of Gellan Gum on Formulation Viscosity
The ophthalmic drop formulation in this example was prepared using the preparation method from Example 8 (i.e., one type of Formulation II of the present invention). Except for compound , the other components in the formulation are: 30% Hydroxypropyl-β-cyclodextrin solution (containing 2% polyoxyethylene castor oil EL): 50 mM Tris(hydroxymethyl)aminomethane-Hydrochloric Acid Buffer (containing 2% Poloxamer 188, 0.3% Gellan Gum Gelrite, w/v) = 50:50 v/v, adjusted to pH using Methanesulfonic Acid and Tris(hydroxymethyl)aminomethane.

melanin = experiment: Compound binding to melanin; type: in vitro ADME; details: cuttlefish (Sepia officinalis), melanin suspension (1 mg/mL), percentage of free drug (not bound to melanin), 2 µM compound, melanin 1 mg/mL in PBS pH 7.4, 37°C
Summary of the method: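 Compound at 2 µM final incubated with 1 mg/mL Sepia melanin in PBS pH 7.4, 37°C, 2 hours with shaking; blank in PBS with 0.1% BSA. Supernatant concentration by LC-MS/MS. Fb = 100 − (Ctest/Ccontrol) × 100%.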

[3] = Ophthalmic formulations based on in situ salt formation technology: composition and state (Example 8); type: physicochemical; details: for State Description: pH ~7; for State Description: pH / State Description: state: Table 17: 5 mg/mL, HP-β-CD 15, Poloxamer 188 1, Gelrite 0.15, Tris-HCl (pH 6.8) 25mM
Text: In the following ophthalmic formulation preparation examples, "solution" refers to a clear, transparent liquid without visible insoluble matter. "Near-clear solution" refers to a liquid that appears close to a solution upon visual observation but may contain a small amount of insoluble particles or have a slightly opaque color. "Suspension" refers to a liquid that is visibly turbid or opaque. "Gel" refers to a completely or partially gel-like solid.
Example 8: Ophthalmic Formulation Based on In Situ Salt Formation Technology
Therefore, by preparing ophthalmic formulation compositions based on in situ salt formation technology, the solubility of the compounds can be further improved.
According to the formulation composition shown in the table below, weigh the compound powder, add 50% of the total volume (v/v) of a 30% (w/v) aqueous solution of hydroxypropyl-β-cyclodextrin (containing surfactant), and disperse by sonication; next, add an appropriate volume of pH regulator and sonicate until clear; then, add an equal volume of buffer containing solubilizer, viscosity modifier, etc., for dilution, and immediately vortex to mix; finally, add an appropriate volume of alkali regulator to adjust the solution pH to approximately 7, to prepare an eye drop formulation.
Using the in situ salt formation method, the compound is first dispersed in a solution containing Hydroxypropyl-β-cyclodextrin, then different acids are added to adjust the pH to 3-5, allowing the compound to fully or nearly fully dissolve, followed by adding the remaining components and adjusting the pH to approximately 7. […] Based on the visual dissolution effect after acid addition, methanesulfonic acid, acetic acid, and lactic acid were preliminarily selected as pH regulators. The preliminarily selected acids were used in subsequent tests with higher compound concentrations. Table 18 Formulation Composition and State

[4] = 0.05M Fumaric Acid 10, 0.5M Tris 0.5
[5] = 1M Acetic Acid 1, 0.5M Tris 0.5
[6] = 1M Lactic Acid 1, 0.5M Tris 0.5
[7] = 1M Maleic Acid 1, 0.5M Tris 1.5
[8] = 1M Methanesulfonic Acid 1, 0.5M Tris 0.5
[9] = 1M Tartaric Acid 1, 0.5M Tris 1

O=C(NC1CC1)c1cccc(F)c1Sc1ccc2c(/C=C/c3cnn(CCCN4CCCC4)c3)n[nH]c2c1 [Compound I-44, N-cyclopropyl-3-fluoro-2-({3-[(E)-2-{1-[3-(pyrrolidin-1-yl)propyl]-1H-pyrazol-4-yl}ethenyl]-1H-indazol-6-yl}sulfanyl)benzamide]
solubility at 8 h [1]: 564 µg/mL (≈ 1060 µM) | Formulation Viscosity ([2]; Test temperature 25 °C): 23.27 mPa.s | Viscosity after Adding STF ([2]; Test temperature 25 °C): 27.26 mPa.s | Formulation Viscosity ([2]; Test temperature 37 °C): 9.53 mPa.s | Viscosity after Adding STF ([2]; Test temperature 37 °C): 24.06 mPa.s | fraction unbound at 2 h, 2 µM (melanin): 0.01 to 0.05 | State Description ([3]; Table 21, Compound 10 mg/ml, 1M Methanesulfonic Acid 1%, Polyoxyethylene castor oil EL 1%, no 0.5M Tris): near-clear solution | State Description ([3]; Table 21, Compound 20 mg/ml, 1M Methanesulfonic Acid 4%, Polyoxyethylene castor oil EL 1%, 0.5M Tris 1%): near-clear solution

CCNC(=O)c1cc(F)ccc1Sc1ccc2c(/C=C/c3ccc(CN4CCCC4)cn3)n[nH]c2c1 [Compound I-97, N-ethyl-5-fluoro-2-({3-[(E)-2-{5-[(pyrrolidin-1-yl)methyl]pyridin-2-yl}ethenyl]-1H-indazol-6-yl}sulfanyl)benzamide]
solubility at 8 h [1]: 319 µg/mL (≈ 635 µM) | Formulation Viscosity ([2]; Test temperature 25 °C): 19.01 mPa.s | Viscosity after Adding STF ([2]; Test temperature 25 °C): 24.19 mPa.s | Formulation Viscosity ([2]; Test temperature 37 °C): 7.97 mPa.s | Viscosity after Adding STF ([2]; Test temperature 37 °C): 21.95 mPa.s | fraction unbound at 2 h, 2 µM (melanin): 0.01 to 0.05 | State Description ([3]; Compound 10 mg/ml, 1M Acetic Acid 2%, no Polyoxyethylene castor oil EL, 0.5M Tris 1%): pH ~7, near-clear solution, with opalescence | State Description ([3]; Compound 10 mg/ml, 1M Lactic Acid 2%, no Polyoxyethylene castor oil EL, 0.5M Tris 1%): pH ~7, near-clear solution, with opalescence | State Description ([3]; Compound 10mg/ml, 1M Methanesulfonic Acid 2%, no Polyoxyethylene castor oil EL, 0.5M Tris 1%): pH ~7, near-clear solution, with opalescence | State Description ([3]; Compound 15 mg/ml, 1M Methanesulfonic Acid 3%, no Polyoxyethylene castor oil EL, 0.5M Tris 1%): pH ~7, near-clear solution, with opalescence | State Description ([3]; Compound 20 mg/ml, 1M Methanesulfonic Acid 4%, Polyoxyethylene castor oil EL 1%, 0.5M Tris 1%): solution | State Description ([3]; Compound 20 mg/ml, 1M Methanesulfonic Acid 4%, no Polyoxyethylene castor oil EL, 0.5M Tris 0.5%): pH ~7, near-clear solution, with opalescence | State Description: pH [3, 4]: ~7 | State Description: state [3, 4]: suspension | State Description: pH [3, 5]: ~7 | State Description: state [3, 5]: near-clear solution | State Description: pH [3, 6]: ~7 | State Description: state [3, 6]: near-clear solution | State Description: pH [3, 7]: ~7 | State Description: state [3, 7]: near-clear solution | State Description: pH [3, 8]: ~7 | State Description: state [3, 8]: near-clear solution | State Description: pH [3, 9]: ~7 | State Description: state [3, 9]: near-clear solution
